Test results from patent US20230212222A1 (ANYGEN CO., LTD., priority 2020, published 2023).

System: pERK and pPKA in WAT cells
Test: pERK and pPKA expression by western blot in WAT
Assay type: cell-based, mice
Conditions: FIG. 86
Method: In order to analyze the mechanism of lipolytic ability according to the HKFY derivative treatment in 3T3-L1 cells and WAT cells, the expression levels of pERK and pPKA were analyzed (FIGS. 85 and 86).
Specifically, protein was purified from 3T3L-1 cells (Korea Cell Line Bank) and WAT (tissue culture using mice purchased from Central Lab. Animal Inc.) treated with the HKFY derivatives, and then each antibody for pERK, ERK, pPKA, and PKA expressed in mice was used, and the expression level of each protein due to the derivatives was measured through western blot.

CCCCCCCC(=O)NCCCC[C@H](NC(=O)[C@@H](N)Cc1cn(C(c2ccccc2)c2ccccc2)cn1)C(=O)N[C@H](Cc1ccc(C)cc1)C(=O)N[C@@H](Cc1ccc(O)cc1)C(=O)O [HKFY-34, ((R)-2-((S)-2-((S)-2-amino-3-(1-benzhydryl-1H-imidazol-4-yl)propanamido)-6-octanamidohexanamido)-3-(p-tolyl)propanoyl)-L-tyrosine]
expression of pERK compared to ERK: increased
expression of pPKA compared to PKA: increased
